The text below walks through data of patent US20180318383A1, “PEPTIDE HAVING NEURONAL LOSS PREVENTION AND REGENERATION EFFECTS, AND COMPOSITION CONTAINING SAME” (GEMVAX & KAEL CO., LTD., priority 2015, published 2018).

Assay [1] relates to PI3K pathway. As to the kind of experiment: NSC survival after PI3K inhibitor LY294002 pre-treatment. It is filed as cell-based, rat. To be noted: 10 μM LY294002 pre-treatment, then 20 μM Aβ25-35 and 10 μM PEP1 for 48 hours. How it is done:
To identify the role of the PI3K/AKT signaling system in the PEP1 mechanism, NSCs were treated with a PI3K inhibitor LY294002 for 1 hour before treatment of 50 μM PEP1 and 20 μM Aβ25-30. NSCs were divided into four groups as follows: control group (Group 1), group treated with 20 μM Aβ25-35 for 48 hours (Group 2), group treated with 20 μM Aβ25-35, as well as 50 μM PEP1, for 48 hours (Group 3), and group treated with 10 μM LY294002 and 20 μM Aβ25-35, as well as 50 μM PEP1, for 48 hours (Group 4). To investigate a PEP1 effect on nerve protection via a PI3K pathway induced by Aβ25-35 toxicity, NSCs were divided into four groups: control group (Group 1), group treated with 20 μM Aβ25-35 for 48 hours (Group 2), group treated with 20 μM Aβ25-35 and 10 μM PEP1 for 48 hours (Group 3), and group treated with 10 μM LY294002 for […], and then treated with 20 μM Aβ25-35 10 μM PEP1 for 48 hours (Group 4).

Assay [2] concerns NSCs. The assay can be described thus: Cell viability of NSCs (CCK-8, MTT, LDH). Format: cell-based, rat. To be noted: NSCs, Aβ25-35 alone 0, 2.5, 5, 10, 20, 40 μM, 48 hours; CCK-8, MTT, LDH. How it is done:
NSCs were isolated from the brain of a rat embryo, cultured and developed. The NSC culture was performed in the same manner as to be described below. Briefly describing, a rat embryo was obtained on day 13 of the embryonic period, and the brain was quickly removed and placed in a petri dish containing cold phosphate-buffered physiological saline (Hank's balanced salt solution; HBSS).
Single cells were isolated from the cerebral cortex, the lateral ganglion eminence, and the embryonic midbrain. These cells were put into a dish pre-treated with L-ornithine and fibronectin, containing calcium and magnesium-free phosphate-buffered physiological saline (PBS) at a density of 20,000 cells/cm^2. In addition, the cells were cultured in an N2 medium (DMEM F/12, […] insulin, 100 mg/L transferrin, 30 nM selenite, […], 20 nM progesterone, 0.2 mM ascorbic acid, […], 8.6 mM D(+) glucose, and […]). The culture was maintained in humidified and 5% CO2 conditions for 4 to 6 days at 37° C.
NSCs were divided into 6 samples, and each sample was treated with […] Aβ25-30 oligomers for 48 hours to identify a suitable concentration. […] Briefly, Aβ25-30 was dissolved in hexafluoroisopropanol to reach a concentration of 1 mM. In addition, the prepared solution was dispensed using a sterilized ultramicrocentrifuge tube. […]
To identify the PEP1 effect in NSCs, PEP1 was treated at various concentrations of 0, 1, 10, 50, 100, and 200 μM for 48 hours. […] The plate was gently washed with PBS several times, and cell viability was measured using a cell counting kit-8 (CCK-8), MTT and lactate dehydrogenase (LDH).
CCK-8 was used as a method for counting living cells by bonding 2-[2-methoxy-4-nitrophenyl]-3-[4-nitrophenyl]-5-[2,4-disulfophenyl]-2H-tetrazolium, monosodium salt (WST-8) with 1-methoxyphenazinium methylsulfate (PMS). […] Cell viability was evaluated by measuring absorbance at 450 nm. […] Cell viability was evaluated by measuring absorbance at 490 nm and reference absorbance at 690 nm. […]

Assay [3] can be described thus: Cell-free ROS production (DHBA level by HPLC). To be noted: 20 μM Aβ25-35 and PEP1 0, 1, 10, 50 μM. How it is done:
To investigate how Aβ25-30 and PEP1 influenced ROS, a DHBA level was measured and observed by a cell-free method. This method was carried out by observing the DHBA level in a tube containing 20 μM Aβ25-30 and each concentration of PEP1 (0, 1, 10 or 50 μM) through HPLC.

The subject of assay [4] is NSCs. The assay can be described thus: NSC proliferation (BrdU and CFU assays). Format: cell-based, rat. To be noted: NSCs, Aβ25-35 alone 0-40 μM, 48 hours; BrdU and CFU. How it is done:
NSCs were treated with different concentrations of PEP1 and 20 μM Aβ25-30 for 48 hours. Afterward, NSCs were cultured in bromodeoxyuridine (BrdU)-labeled media for 5 hours and observed using a kit. Cell division was evaluated by measuring absorbance at 370 nm and reference absorbance at 492 nm. All results were normalized based on a cell-free well.
A CFU assay was carried out by the following method. Briefly, 0.25×10^5 NSCs were plated in a 6-well plate, and treated with 20 μM Aβ25-30 and then with PEP1 at 1, 10 or 50 μM for 48 hours. The cells were washed with DPBS, and then the medium was exchanged with a fresh cell culture medium. Fourteen days later, the cells were washed again with DPBS, and stained with 0.5% crystal violet dissolved in methanol for 30 minutes at room temperature. Following staining, the plate was washed with DPBS and then dried. The number of colonies was observed using a stereoscopic microscope, and among these colonies, those smaller than 2 mm or faintly stained were removed.

Where no end group is shown, it is not given here.

For the compound `O=c1cc(N2CCOCC2)oc2c(-c3ccccc3)cccc12` [LY294002], the “survival ability of NSCs degraded, Group 4 compared to Group 3” value in assay [1] is given as “approximately 16%”.
As to “Aβ25-35: β-Amyloid 25-35 oligomers used to induce neurotoxicity in NSCs (GSNKGAIIGLM; also: used as oligomers; UniProt P05067 696-706, looked up, fragment) [reference compound]”, the cell survival ability entry in assay [2] is “significantly reduced in a concentration-dependent method”. Also, the “ROS production under a cell-free condition” value in assay [3] is “did not exhibit a significant influence”. The proliferation result in assay [4] was “significantly reduced in a concentration-dependent method”.
